Measured values reported in patent publication US4183910A, “Method for testing to predict and/or diagnose allergy to penicillins, and compounds and compositions for use in such tests” (priority 1978, dated 1980).

How the values were obtained:
Format in all cases: in vivo, human
[1] = test system: patients known to give positive skin test to penicillin derivatives; test: Intradermal skin test with BPO-amines and other penicillin allergy skin test materials (Table II); conditions: for Intensity of reactions in patients: patient alpha / Skin test reaction of patient four, in words: patient four; for Skin test reaction of patient four, in words: text summary of Table II; for Intensity of reactions in patients: patient iota: patient nine; for Intensity of reactions in patients: patient epsilon: patient seven; for Intensity of reactions in patients: delta: patient six; for Intensity of reactions in patients: theta: patient two; for Intensity of reactions in patients: patient zeta: patient one; for Intensity of reactions in patients: beta: patient three; for Intensity of reactions in patients: patient gamma: patient eight
Excerpt: Benzylpenicillin (PG) was 1.0×10^-2 M in 0.11M saline.
Sodium benzylpenicilloate plus sodium benzylpenilloate (P/P) was 1.0×10^-2 M of each dissolved in phosphate buffered saline at pH 7.5.
Benzylpenicilloyl-amine (BPO-amine) was 1.0×10^-2 M concentration phosphate buffered saline at pH 7.5.
Benzylpenicilloyl-n-propyl amine and benzylpenicilloyl-n-ethyl amine (as α-diastereoisomers) were each dissolved to 1.0×10^-2 M concentration in phosphate buffered saline at pH 7.5.
They were healthy men and women ranging in age from 23 to 56 years. Ten people negative to the skin test materials served as controls.
Using 1.0 ml tuberculin syringes with #26 needles and intradermal bevels, 0.01 ml volumes of the test materials were injected intradermally into the anterior-lateral aspects of the arms. Skin tests were read in 15 minutes. A negative reaction is the poorly outlined bleb of fluid --1-3 mm in diameter without surrounding erythema. Positive tests were sharply outlined wheals of 4-20 mm diameter with surrounding erythema. The positive tests were graded as 1+,2+,3+ and 4+ on the basis of wheal diameter. 1+=4-6 mm; 2+=7-9 mm; 3+=10-12 mm; and 4+=more than 13 mm with pseudopods. […] Skin tests were done in duplicate.

[2] = test system: patients allergic to penicillin; test: Prick skin test with B8 L8 solution; conditions: Patient No. 1; B8 L8 1×10^-6 molar in tris-buffered saline pH 8.2
Procedure: (§1) The B8 L8 stock solution was diluted to 1×10^-6 molar in tris-buffered saline with a pH of 8.2, also containing ethylenediaminetetraceticacid (2×10^-4 molar) for stability. The composition was then used in skin testing. The tests were conducted by both the prick test and intradermal test methods, and the results were as follows:
Patient No. 1--prick test--B8 L8 =2+.

[3] = test system: patients allergic to penicillin; test: Intradermal skin test with B8 L8 solution; conditions: Patient No. 2; B8 L8 1×10^-6 molar in tris-buffered saline pH 8.2
Procedure: as §1
Patient No. 2--intradermal test--the B8 L8 gave a 10 mm wheal and rated from 2+ to 3+ in intensity.

[4] = intradermal 0.01 ml, read in 15 minutes, BPL 1 × 10^-6 M, other materials 1 × 10^-2 M

Molecule	Intensity of reactions in patients: patient alpha [1, 4]	Skin test reaction of patient four, in words [1]	Intensity of reactions in patients: patient iota [1, 4]	Intensity of reactions in patients: patient epsilon [1, 4]	Intensity of reactions in patients: delta [1, 4]	Intensity of reactions in patients: theta [1, 4]	Intensity of reactions in patients: patient zeta [1, 4]	Intensity of reactions in patients: beta [1, 4]	Intensity of reactions in patients: patient gamma [1, 4]	Intensity of reactions in patients: patient eta ([1]; patient five, intradermal 0.01 ml, read in 15 minutes, BPL 1 × 10^-6 M, other materials 1 × 10^-2 M)	Prick test reaction intensity [2]	Size of the wheal (diameter), prick test [2]	Wheal, intradermal test [3]
CCNC(=O)C(NC(=O)Cc1ccccc1)C1NC(C(=O)O)C(C)(C)S1 (centres unmarked) [BPO-ethyl amine, benzylpenicilloyl-n-ethyl amine]	2+ (2+=7-9 mm)	positive reaction	0 (A negative reaction is the poorly outlined bleb of fluid --1-3 mm in diameter without surrounding erythema)	trace	0 (A negative reaction is the poorly outlined bleb of fluid --1-3 mm in diameter without surrounding erythema)	3+ (3+=10-12 mm)	–	–	–	–	–	–	–
CCCNC(=O)[C@@H](NC(=O)Cc1ccccc1)[C@@H]1N[C@@H](C(=O)O)C(C)(C)S1 [BPO-propyl amine, Benzylpenicilloyl-n-propyl amine]	–	positive reaction	1+ (1+=4-6 mm)	trace	0 (A negative reaction is the poorly outlined bleb of fluid --1-3 mm in diameter without surrounding erythema)	–	1 - 2°	2+ (2+=7-9 mm)	–	–	–	–	–
CC1(C)S[C@@H]2[C@H](NC(=O)Cc3ccccc3)C(=O)N2[C@H]1C(=O)O [PG, Benzylpenicillin]	0 (A negative reaction is the poorly outlined bleb of fluid --1-3 mm in diameter without surrounding erythema)	–	trace	trace	0 (A negative reaction is the poorly outlined bleb of fluid --1-3 mm in diameter without surrounding erythema)	2+ (2+=7-9 mm)	2+ (2+=7-9 mm)	1+ (1+=4-6 mm)	0 (A negative reaction is the poorly outlined bleb of fluid --1-3 mm in diameter without surrounding erythema)	0 (A negative reaction is the poorly outlined bleb of fluid --1-3 mm in diameter without surrounding erythema)	–	–	–
Benzylpenicilloyl8 -Poly-L-Lysine8 [B8 L8]	–	–	–	–	–	–	–	–	–	–	2+ (2+=7-9 mm)	4-5 mm	10 mm
Benzylpenicilloyl-amine [BPO-amine]	1+ (1+=4-6 mm)	–	2+ (2+=7-9 mm)	trace	0 (A negative reaction is the poorly outlined bleb of fluid --1-3 mm in diameter without surrounding erythema)	–	–	–	1+ (1+=4-6 mm)	–	–	–	–
